Results as given in ChEMBL document CHEMBL1126075, “Chemistry and anti-HIV properties of 2'-fluoro-2',3'-dideoxyarabinofuranosylpyrimidines” (J Med Chem, 1992).

What was measured:
[1] = Partition coefficient (logP); type: physicochemical; details: octanol/water
ATH-8 cell line [2] = experiment: Percent protection of ATH8 cells from HIV-induced cytopathic effects at a concentration of 0.5 uM.; type: functional, Homo sapiens
CCRF-CEM = experiment: Effect on HIV-induced cytopathogenesis in CEM cells.; type: functional, cell-based; details: Homo sapiens
ATH-8 cell line [3] = experiment: Percent cytotoxicity against ATH8 cells at a concentration of 1 uM.; type: functional; details: Homo sapiens
ATH-8 cell line [4] = experiment: Percent protection of ATH8 cells from HIV-induced cytopathic effects at a concentration of 1 uM.; type: functional, Homo sapiens
[5] = Therapeutic index (IC50/EC50) was determined; details: read-out: TI
ATH-8 cell line [6] = experiment: Percent cytotoxicity against ATH8 cells at a concentration of 0.5 uM.; type: functional; details: Homo sapiens
ATH-8 cell line [7] = experiment: Percent cytotoxicity against ATH8 cells at a concentration of 5 uM.; type: functional; details: Homo sapiens
ATH-8 cell line [8] = experiment: Percent protection of ATH8 cells from HIV-induced cytopathic effects at a concentration of 5 uM.; type: functional, Homo sapiens
ATH-8 cell line [9] = experiment: Percent protection of ATH8 cells from HIV-induced cytopathic effects at a concentration of 0.2 uM.; type: functional, Homo sapiens
ATH-8 cell line [10] = experiment: Percent cytotoxicity against ATH8 cells at a concentration of 0.2 uM.; type: functional; details: Homo sapiens

Structure (SMILES)	logP [1]	Protection (ATH-8 cell line [2])	EC50 (CCRF-CEM)	IC50 (CCRF-CEM)	cytotoxicity at 1 µM (ATH-8 cell line [3])	Protection (ATH-8 cell line [4])	selectivity ratio [5]	cytotoxicity at 0.5 µM (ATH-8 cell line [6])	cytotoxicity at 5 µM (ATH-8 cell line [7])	Protection (ATH-8 cell line [8])	Protection (ATH-8 cell line [9])	cytotoxicity at 0.2 µM (ATH-8 cell line [10])
Nc1ccn([C@H]2C=C[C@@H](CO)O2)c(=O)n1	-1.57	–	–	–	–	–	–	–	–	–	–	–
Cc1cn([C@@H]2O[C@H](CO)C[C@H]2F)c(=O)[nH]c1=O	-0.44	–	–	–	–	–	–	–	–	–	–	–
Nc1ccn([C@@H]2O[C@H](CO)C[C@@H]2F)c(=O)n1	-1.18	25%	1.1 µM	43 µM	4%	56%	39	8%	1%	53%	3%	0%
O=c1ccn(C2CCC(CO)O2)c(=O)[nH]1 (stereo not given)	-1	–	–	–	–	–	–	–	–	–	–	–
Nc1nc(=O)n(C2OC(CO)CC2F)cc1Cl (stereo not given)	-0.46	–	–	–	–	–	–	–	–	–	–	–
Nc1nc(=O)n([C@@H]2CC[C@H](CO)O2)cc1F	-1.09	96%	0.1 µM	> 40 µM	1%	100%	> 400	0%	4%	99%	71%	0%
O=c1[nH]c(=O)n(C2OC(CO)CC2F)cc1F (stereo not given)	-0.72	–	–	–	–	–	–	–	–	–	–	–
Nc1nc(=O)n(C2OC(CO)CC2F)cc1F (stereo not given)	-0.92	8%	57.7 µM	> 580 µM	8%	7%	> 10	0%	0%	73%	0%	0%
O=c1ccn(C2OC(CO)CC2F)c(=O)[nH]1 (stereo not given)	-0.87	–	–	–	–	–	–	–	–	–	–	–
O=c1[nH]c(=O)n(C2OC(CO)CC2F)cc1Cl (stereo not given)	-0.28	–	–	–	–	–	–	–	–	–	–	–
O=c1ccn([C@@H]2O[C@H](CO)[C@@H](O)[C@H]2O)c(=O)[nH]1 [URIDINE]	-1.94	–	–	–	–	–	–	–	–	–	–	–
Nc1ccn([C@H]2CC[C@@H](CO)O2)c(=O)n1 [ZALCITABINE]	–	100%	0.3 µM	120 µM	9%	100%	380	0%	1%	88%	93%	6%
